From ChEMBL document CHEMBL1141296, “Brunneins A-C, beta-carboline alkaloids from Cortinarius brunneus” (J Nat Prod, 2007)

Tests used:
PC-3 = experiment: Cytotoxicity against human PC3 cells upto 100 uM after 24 hrs by XTT method; format: functional, cell-based
[1] = molecular target: T1, Acetylcholinesterase (Bos taurus) (UniProt P23795); experiment: Inhibition of bovine AChE at 100 uM by Ellman's method
T1 sequence (whole entry): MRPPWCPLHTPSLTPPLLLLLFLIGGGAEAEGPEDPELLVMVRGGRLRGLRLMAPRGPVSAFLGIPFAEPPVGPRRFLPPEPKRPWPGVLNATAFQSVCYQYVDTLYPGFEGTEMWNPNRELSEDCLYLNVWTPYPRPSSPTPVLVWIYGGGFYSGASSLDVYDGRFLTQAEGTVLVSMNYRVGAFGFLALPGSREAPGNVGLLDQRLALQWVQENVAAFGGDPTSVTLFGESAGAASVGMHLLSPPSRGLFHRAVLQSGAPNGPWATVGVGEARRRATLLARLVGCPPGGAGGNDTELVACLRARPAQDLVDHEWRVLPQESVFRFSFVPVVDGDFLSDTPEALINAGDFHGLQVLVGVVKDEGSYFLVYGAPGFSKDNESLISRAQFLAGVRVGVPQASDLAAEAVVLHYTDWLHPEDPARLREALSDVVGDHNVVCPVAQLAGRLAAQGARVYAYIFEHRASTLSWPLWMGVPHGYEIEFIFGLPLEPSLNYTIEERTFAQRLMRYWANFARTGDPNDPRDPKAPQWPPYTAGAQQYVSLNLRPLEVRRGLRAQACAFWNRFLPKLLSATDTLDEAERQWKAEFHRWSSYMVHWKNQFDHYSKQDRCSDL

[2] = molecular target: Butyrylcholinesterase (Equus caballus) (UniProt Q9N1N9); experiment: Inhibition of equine BChE at 100 uM by Ellman's method

CC1=N[C@H](C(=O)O)Cc2c1[nH]c1cc(O)ccc21
Activity (PC-3): Not toxic | inhibition [1]: < 50% | inhibition [2]: < 50%
